In data set [1] the target is T1, MAP kinase-activated protein kinase 2 (Homo sapiens, UniProt P49137). Briefly: Inhibition of MK2 using Fluo-betaA-11A NeoMPS as substrate pre-incubated for 30 mins before substrate addition measured after 2 hrs by IMAP assay.
For the next data set, the system named is THP-1. In words: Inhibition of LPS-induced TNFalpha production in human THP1 cells pre-incubated for 30 mins prior to LPS-induction measured after 4 hrs by ELISA. It is filed as functional, cell-based. On the technique in general: In an ELISA, binding on a coated surface is turned into a signal by an enzyme label.
The target in data set [2] is T1, MAP kinase-activated protein kinase 2. In words: Inhibition of MK2-mediated HSP27 phosphorylation in LPS-stimulated human THP1 cells pre-incubated for 60 mins prior to LPS-induction measured after 60 mins by multi-spot assay. The format is cell-based, THP-1.
In a further data set the test system is PBMC. Briefly: Inhibition of LPS-induced TNFalpha production in human PBMC pre-incubated for 30 mins prior to LPS-induction measured after 4 hrs by ELISA. It is filed as functional, cell-based.
The nature of data set [3]: Permeability of the compound by PAMPA. It is filed as ADME. Particulars: for Papp: read-out: permeability. Background: PAMPA measures passive passage across an artificial lipid membrane.

T1 sequence (P49137 whole entry): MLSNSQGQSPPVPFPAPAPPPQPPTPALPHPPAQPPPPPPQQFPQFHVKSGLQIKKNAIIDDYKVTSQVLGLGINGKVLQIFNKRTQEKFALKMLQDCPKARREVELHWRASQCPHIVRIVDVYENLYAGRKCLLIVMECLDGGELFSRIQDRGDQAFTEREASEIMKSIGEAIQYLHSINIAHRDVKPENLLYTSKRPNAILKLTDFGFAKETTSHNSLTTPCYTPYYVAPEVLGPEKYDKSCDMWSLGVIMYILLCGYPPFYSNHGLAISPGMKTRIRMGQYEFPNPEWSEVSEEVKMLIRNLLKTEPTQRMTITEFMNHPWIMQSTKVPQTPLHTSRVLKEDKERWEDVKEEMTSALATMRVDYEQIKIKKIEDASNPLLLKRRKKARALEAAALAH

Broadly, the EC50 is the midpoint of the concentration-response curve. As to `Cc1ccc(C(=O)Nc2nccc(-c3cc4c([nH]3)C3(CCNCC3)CNC4=O)n2)cc1C`, the EC50 in data set [1] amounted to 0.0031 µM; in the data set with THP-1 (Homo sapiens, THP-1), 3.4 µM.
Consider `Cc1ccc(C(=O)Nc2cc(-c3cc4c([nH]3)C3(CCNCC3)CNC4=O)ccn2)cc1C`, for which the EC50 in data set [1] amounted to 0.001 µM; with THP-1 (Homo sapiens, THP-1), 0.23 µM; in data set [2], 0.35 µM; in the data set with PBMC (Homo sapiens, PBMC), 0.89 µM.
`O=C(Nc1nccc(-c2cc3c([nH]2)C2(CCNCC2)CNC3=O)n1)c1ccc2ccccc2c1`: the EC50 worked out at 0.0051 µM in data set [1] and 3.4 µM in the data set on THP-1 (Homo sapiens, THP-1).
On the same counts, the results for `O=C1NCC2(CCNCC2)c2[nH]c(-c3ccnc(NC(=O)c4cccc5ccccc45)n3)cc21` are 0.014 µM and over 10 µM.
Take `O=C1NCC2(CCNCC2)c2[nH]c(-c3ccnc(NC(=O)c4cccc5ccccc45)c3)cc21`: the EC50 came to 0.00096 µM in data set [1]; 0.49 µM with THP-1 (Homo sapiens, THP-1); 0.52 µM in data set [2]; 0.65 µM in the data set on PBMC (Homo sapiens, PBMC).
For `O=C(Nc1nccc(-c2cc3c([nH]2)C2(CCNCC2)CNC3=O)n1)c1ccc(F)cc1`, the EC50 in data set [1] came to 0.015 µM; in the data set with THP-1 (Homo sapiens, THP-1), 7.9 µM.
As for `O=C(Nc1cc(-c2cc3c([nH]2)C2(CCNCC2)CNC3=O)ccn1)c1ccc(F)cc1`, the EC50 in data set [1] is 0.0016 µM; with THP-1 (Homo sapiens, THP-1), 1.3 µM; in data set [2], 3.7 µM; with PBMC (Homo sapiens, PBMC), 1.4 µM.
As to `Cc1ccc(C(=O)Nc2cc(-c3cc4c([nH]3)C3(CCN(C)CC3)CNC4=O)ccn2)cc1C`, the EC50 in data set [1] worked out at 0.0023 µM; in the data set with THP-1 (Homo sapiens, THP-1) it was 0.72 µM; in data set [2] it was 0.92 µM.
Regarding `O=C(Nc1cc(-c2cc3c([nH]2)C2(CCNCC2)CNC3=O)ccn1)c1cccc(F)c1`, the EC50 in data set [1] amounted to 0.0011 µM; with THP-1 (Homo sapiens, THP-1), 0.78 µM; in data set [2], 0.68 µM; in the data set with PBMC (Homo sapiens, PBMC), 0.15 µM. Also, the Papp in data set [3] stood at 0.6 ×10⁻⁶ cm/s.
Turning to `CN1CCC2(CC1)CNC(=O)c1cc(-c3ccnc(NC(=O)c4cccc(F)c4)c3)[nH]c12`, the EC50 turned out to be 0.0025 µM in data set [1]; 0.54 µM in the data set on THP-1 (Homo sapiens, THP-1); 0.64 µM in data set [2]; 0.03 µM in the data set with PBMC (Homo sapiens, PBMC).
On the same counts, the results for `O=C(Nc1cc(-c2cc3c([nH]2)C2(CCNCC2)CNC3=O)ccn1)c1ccc(C(F)(F)F)cc1` are 0.0016 µM, 0.66 µM, 1.3 µM and 1.6 µM.
On the same counts, the results for `O=C(Nc1cc(-c2cc3c([nH]2)C2(CCNCC2)CNC3=O)ccn1)c1ccccn1` are 0.0014 µM, 0.72 µM, 0.55 µM and 0.26 µM.
On the same counts, the results for `O=C(Nc1cc(-c2cc3c([nH]2)C2(CCNCC2)CNC3=O)ccn1)c1ccncc1` are 0.0026 µM, over 10 µM, over 10 µM and 2.6 µM.
In the case of `Cc1ccc(C(=O)Nc2cc(-c3cc4c([nH]3)C3(CCCNC3)CNC4=O)ccn2)cc1C` (racemic), the EC50 in data set [1] came out at 0.0081 µM; in the data set on THP-1 (thp-1) it was 0.46 µM; in data set [2], 0.69 µM; in the data set with PBMC (pbmc), 0.04 µM.
On the same counts, the results for `O=C(Nc1cc(-c2cc3c([nH]2)C2(CCCNC2)CNC3=O)ccn1)c1ccc2ccccc2c1` (racemic) are 0.0076 µM, 0.78 µM, 1.1 µM and 0.07 µM.
On to `O=C1NCC2(CCCNC2)c2[nH]c(-c3ccnc(NC(=O)c4cccc5ccccc45)c3)cc21` (racemic), for which the EC50 is 0.0051 µM in data set [1]; 0.22 µM in the data set with THP-1 (Homo sapiens, THP-1); 1.1 µM in data set [2]; 0.39 µM in the data set with PBMC (Homo sapiens, PBMC). Moreover, in data set [3], the Papp turned out to be 0.1 ×10⁻⁶ cm/s.
As to `O=C(Nc1cc(-c2cc3c([nH]2)C2(CCCNC2)CNC3=O)ccn1)c1ccc(F)cc1` (racemic), the EC50 in data set [1] was determined as 0.0089 µM; in the data set with THP-1 (thp-1) it was 0.32 µM; in data set [2] it was 0.87 µM. This compound gave a permeability in data set [3] of 0.5 ×10⁻⁶ cm/s.
In the case of `O=C(Nc1cc(-c2cc3c([nH]2)C2(CCCNC2)CNC3=O)ccn1)c1cccc(F)c1` (racemic), the EC50 was found to be 0.0062 µM in data set [1]; 0.56 µM with THP-1 (Homo sapiens, THP-1); 0.03 µM in the data set on PBMC (Homo sapiens, PBMC). The Papp in data set [3] worked out at 1.9 ×10⁻⁶ cm/s.
Consider `O=C(Nc1cc(-c2cc3c([nH]2)C2(CCCNC2)CNC3=O)ccn1)c1ccc(C(F)(F)F)cc1` (racemic), for which the EC50 in data set [1] came out at 0.0091 µM; with THP-1 (Homo sapiens, THP-1), 1.3 µM; in data set [2] it was 1.2 µM; in the data set with PBMC (Homo sapiens, PBMC) it was 0.48 µM.
Take `O=C(Nc1cc(-c2cc3c([nH]2)C2(CCCNC2)CNC3=O)ccn1)c1ccccn1` (racemic): the EC50 in data set [1] was found to be 0.0042 µM; in the data set with THP-1 (Homo sapiens, THP-1), 0.48 µM; in data set [2], 0.66 µM; in the data set on PBMC (Homo sapiens, PBMC) it was 0.13 µM. Besides, the Papp in data set [3] stood at 0.2 ×10⁻⁶ cm/s.
As to `O=C(Nc1cc(-c2cc3c([nH]2)C2(CCCNC2)CNC3=O)ccn1)c1cc(F)cc(F)c1` (racemic), the EC50 in data set [1] is 0.0025 µM; with THP-1 (Homo sapiens, THP-1), 1.1 µM; in data set [2] it was 0.59 µM; with PBMC (Homo sapiens, PBMC), 0.14 µM. Further, in data set [3], the Papp amounted to 6.3 ×10⁻⁶ cm/s.
On to `O=C(Nc1cc(-c2cc3c([nH]2)C2(CCCNC2)CNC3=O)ccn1)c1cccc(C(F)(F)F)c1` (racemic), for which the EC50 is 0.0033 µM in data set [1]; 0.85 µM in the data set on THP-1 (Homo sapiens, THP-1); 0.59 µM in data set [2]; 0.14 µM with PBMC (Homo sapiens, PBMC).
For the compound `Cc1ccc(C(=O)Nc2cc(-c3cc4c([nH]3)C3(CCNC3)CNC4=O)ccn2)cc1C` (racemic), the EC50 in data set [1] is 0.00071 µM; in the data set with THP-1 (Homo sapiens, THP-1), 0.34 µM; in data set [2], 0.24 µM; in the data set with PBMC (Homo sapiens, PBMC), 0.15 µM. Moreover, the Papp in data set [3] was found to be 0.2 ×10⁻⁶ cm/s.
As for `O=C(Nc1cc(-c2cc3c([nH]2)C2(CCNC2)CNC3=O)ccn1)c1ccc(F)cc1` (racemic), the EC50 in data set [1] came out at 0.0013 µM; in the data set on THP-1 (Homo sapiens, THP-1), 1.1 µM; in data set [2], 0.84 µM; in the data set with PBMC (Homo sapiens, PBMC), 0.2 µM.
Turning to `O=C(Nc1cc(-c2cc3c([nH]2)C2(CCNC2)CNC3=O)ccn1)c1cccc(F)c1` (racemic), the EC50 in data set [1] was 0.0019 µM; with THP-1 (Homo sapiens, THP-1) it was 1.1 µM; in data set [2], 0.48 µM; in the data set on PBMC (Homo sapiens, PBMC), 0.17 µM. Besides, in data set [3], the Papp amounted to 0.6 ×10⁻⁶ cm/s.
With `O=C(Nc1cc(-c2cc3c([nH]2)C2(CCNC2)CNC3=O)ccn1)c1ccccn1` (racemic), the EC50 stood at 0.0041 µM in data set [1]; 3.9 µM in the data set with THP-1 (Homo sapiens, THP-1); 0.66 µM in data set [2].
`O=C(Nc1cc(-c2cc3c([nH]2)C2(CCCNC2)CNC3=O)ccn1)c1ccc(F)cc1` (single isomer, unassigned; isomer 2): the EC50 is 0.031 µM in data set [1], over 10 µM with THP-1 (thp-1), 7.4 µM in data set [2] and 1.6 µM with PBMC (pbmc).
`O=C(Nc1cc(-c2cc3c([nH]2)C2(CCCNC2)CNC3=O)ccn1)c1ccc2ccccc2c1` (single isomer, unassigned; stereoisomer 1): the EC50 was determined as 0.0025 µM in data set [1]; 0.51 µM in the data set with THP-1 (Homo sapiens, THP-1); 0.53 µM in data set [2]; 0.17 µM with PBMC (pbmc).
Consider `Cc1ccc(C(=O)Nc2cc(-c3cc4c([nH]3)C3(CCCNC3)CNC4=O)ccn2)cc1C` (single isomer, unassigned; stereoisomer 2), for which the EC50 in data set [1] turned out to be 0.032 µM; in the data set with THP-1 (thp-1), 8.5 µM; in data set [2] it was 5.3 µM; in the data set on PBMC (pbmc), 1.2 µM. In addition, in data set [3], the Papp turned out to be 1 ×10⁻⁶ cm/s.
For the compound `Cc1ccc(C(=O)Nc2cc(-c3cc4c([nH]3)C3(CCCNC3)CNC4=O)ccn2)cc1C` (stereo in doubt; 3dS1), the EC50 in data set [1] came out at 0.0055 µM; in the data set on THP-1 (thp-1), 0.65 µM.

For the origin of these results see ChEMBL document CHEMBL1932991, “Novel ATP competitive MK2 inhibitors with potent biochemical and cell-based activity throughout the series” (Bioorg Med Chem Lett, 2012).
